Laboratory results reported in PMC9590307, “Peptide ^Tat(48–60) YVEEL protects against necrotizing enterocolitis through inhibition of toll-like receptor 4-mediated signaling in a phosphatidylinositol 3-kinase/AKT dependent manner” (Frontiers in Nutrition, 2022).

Key:
Assay type in all cases: cell-based, human
[1] = test system: TLR4-mediated signaling in FHC enterocytes; assay: Western blot of TLR4-mediated signaling in LPS-treated enterocytes
[2] = test system: TLR4-mediated signaling in FHC enterocytes; assay: qRT-PCR of IL-6 and COX-2 mRNA in LPS-treated enterocytes
[3] = test system: FHC cells; assay: In vitro enterocyte migration (scratch wound); conditions: Ys49 2 and 5 μM with peptide 40 μM for 1 h, then LPS
Protocol: Cells were expected to reach a 100% confluence on the day of the experiment. Monolayers were scratched by a sterile pipette tip and washed for three times with pre-warmed 1 × PBS. The wounded monolayer of FHC or IEC-6 cells was imaged at indicated time using a microscope (Zeiss, Germany). The relative migration index of the cells was measured according to the area of the wound edge by Image J software (NIH Image, USA).

[4] = test system: p65 subunit of NF-κB in FHC cells; assay: Immunofluorescence staining of NF-κB p65 nuclear translocation; conditions: Ys49 2 and 5 μM with peptide 40 μM for 1 h, then LPS
Protocol: FHC cells were fixed, washed and blocked, and then incubated with the following primary antibodies: anti-NF-κB p65 (Cell Signaling Technology, USA) and […]. The Alexa Fluor® 488-labeled goat anti-rabbit secondary antibody was used (Cell Signaling Technology, USA). FHC cells were counterstained with DAPI (Sigma-Aldrich, USA) and visualized using a fluorescence microscope (Zeiss, Germany).

[5] = test system: PI3K/AKT pathway in FHC enterocytes; assay: Western blot of PI3K and AKT phosphorylation; conditions: Ys49 2 and 5 μM with ^Tat(48–60) YVEEL 40 μM for 1 h, then LPS
Protocol: Cell pellets or intestinal tissues were lysed with RIPA buffer (Beyotime, China) for 20 min on ice and lysates were collected by centrifugation (13000 × g, 20 min at 4°C). Protein concentrations were quantified using the BCA Protein Assay (Thermo Fisher Scientific, USA) and equal amounts (20 μg) of protein lysates from each sample were separated by SDS-PAGE. Separated proteins were then transferred to PVDF membranes (Millipore, USA). Membranes were blocked with 5% skim milk or BSA and then incubated with the following primary antibodies: anti-TLR4 (Abcam, USA), anti-p-IκBα (Abcam, USA), anti-IκBα (Abcam, USA), anti-p-PI3K (Cell Signaling Technology, USA), anti-p-AKT (Cell Signaling Technology, USA), anti-PI3K (Cell Signaling Technology, USA), anti-AKT (Cell Signaling Technology, USA), anti-β-actin (Abcam, USA). Membranes were then incubated with species-matched HRP-conjugated secondary antibodies (Biosharp, China). Protein expressions were visualized using Immobilon® Western Chemiluminescent HRP Substrate (Millipore, USA) in accordance with the manufacturer’s protocol.

[6] = Ys49 2 and 5 μM with ^Tat(48–60) YVEEL 40 μM for 1 h, then LPS
[7] = LY294002 10 μM in the absence or presence of ^Tat(48–60) YVEEL 40 μM, LPS

Oc1cc2c(cc1O)C(Cc1cccc3ccccc13)NCC2 (stereo not shown) [Ys49]
effect on ^Tat(48–60) YVEEL-induced reduction of TLR4 expression [1, 6]: notably reversed
effect on ^Tat(48–60) YVEEL-induced reduction of p-IκBα expression [1, 6]: notably reversed
effect on protective effect of ^Tat(48–60) YVEEL on TLR4-mediated induction of pro-inflammatory cytokines (IL-6, COX-2 mRNA) [2, 6]: reversed
effect on protective effect of ^Tat(48–60) YVEEL on enterocyte migration [3]: attenuated
effect on blockage of TLR4-mediated cytoplasm-nucleus translocation of p65 by the peptide [4]: attenuated
effect on inhibitory effects of ^Tat(48–60) YVEEL on PI3K/AKT pathway [5]: significantly abolished

O=c1cc(N2CCOCC2)oc2c(-c3ccccc3)cccc12 [LY294002]
TLR4 protein expression, inhibition in the presence of ^Tat(48–60) YVEEL ([1]; LY294002 10 μM plus ^Tat(48–60) YVEEL 40 μM, LPS): more significant
TLR4 protein expression ([1]; LY294002 10 μM, LPS): could inhibit
TLR4-induced mRNA expression of COX-2 [2, 7]: reduced
TLR4-induced mRNA expression of IL-6 [2, 7]: reduced
